Where a name gives a salt, the structure may show the parent alone.
Question: With `Clc1ccc([C@H]2CCNC[C@@H]2OCc2ccc3ccccc3c2)cc1` (racemic) (as salt: hydrochloride) [Example 12, (3RS,4RS)-4-(4-chloro-phenyl)-3-(naphthalen-2-ylmethoxy)-piperidine] as the compound, how does the melting point read?
Answer: The melting point was 159 to 161 °C (dec.).
